What was measured:
human donor hearts = assay: Mass spectrometry metabolomics of cold-preserved human donor hearts
Experimental: Pig hearts underwent ex-vivo perfusion after preservation for 4 or 10 hours. Approval for human heart procurement was obtained from the University of Michigan Institutional Review Board (HUM00131275). Human donor hearts from deceased brain death donors were procured as per standard clinical protocols from the Gift of Life Michigan (GOLM) organ procurement facility. Myocardial biopsies (˜5 mm^3) of LV were biopsied immediately after cardioplegic arrest (0 h) and after 8 hours (8 h) of cold storage in a cooler containing ice. […] Causes of death were stroke (n=4), trauma (n=2), drug overdose (n=1), and cardiac arrest (n=1). Heart tissue were either fixed in formalin or snap frozen in liquid N2 for later analysis.
(§1) Metabolomics measurements were performed by the Michigan Regional Comprehensive Metabolomics Resource Core (Ann Arbor, MI, USA).

murine hearts = assay: Mass spectrometry metabolomics of preserved or transplanted murine hearts; parameters: species or system mouse
Experimental: Male and female WT or Irg1^−/− mice (Jackson laboratories, Bar Harbor, ME) were anesthetized intraperitoneally with 80 mg/kg ketamine and 5 mg/kg xylazine, anticoagulated with heparin (2,000 U/kg iv), and the heart was rapidly exposed through a sternal incision. The aorta was cannulated and retrograde perfused in-situ with HTK solution±HDAC inhibitors. After cannulation, the heart dissected free, the left atrium was opened. For 4-OI (Cayman Chemical, 25374) experiments, donor mice were treated 4-OI (dissolved in 40% β-Cyclodextrin, 50 mg/kg intraperitoneally) or vehicle control (40% β-Cyclodextrin intraperitoneally) 2 hours prior to donor heart procurement. After dissection, the heart was stored at 4° C. with HTK or HTK with VPA for a pre-designated duration. The hearts were then mounted on a Radnoti mouse Langendorff apparatus (ADInstruments inc., Colorado Springs, CO) in constant-pressure mode (˜70 mmHg) with a modified Krebs-Henseleit buffer (KHB; in mM: 118 NaCl, 4.7 KCl, 1.25 CaCl2), 1.66 MgSO4, 24.88 NaHCO3, 1.18 KH2PO4, 5.55 glucose, and 2.0 Na-pyruvate). A balloon was placed in the LV through the left atrium and left ventricular diastolic pressure was set to ˜8 mmHg at initiation. The heart was perfused with modified Krebs-Henseleit buffer for 30 min to stabilize and then hemodynamics measurements were recorded. Myocardial temperature was maintained at 37° C. LabChart software (ADInstruments inc., Colorado Springs, CO) was used to record ventricular function, perfusion pressures, cardiac chamber temperature and myocardial temperature. After perfusing the heart for 60 minutes, the heart was removed from the ex-vivo perfusion apparatus for specimen collection. Tissue was immediately placed in liquid N2 or treated with 4% formalin.
Cardiac grafts procured from WT C57Bl/6J mice following arrest with cold (4° C.) HTK±VPA were transplanted into the right neck of sex-matched syngeneic C57BL/6J recipient mice following 16 hours of cold (4° C.) preservation in corresponding HTK±VPA solution as previously described (59). A cuff technique was used to connect the recipient right common carotid artery and right external jugular vein to the donor ascending aorta and pulmonary artery, respectively. Following reperfusion in the recipient, successful grafts were expected to resume a regular heartbeat. At 24 hours after reperfusion, the surgical incision was reopened and a small conductance catheter was introduced into the LV to measure contractility and relaxation.
as §1

[1] = human hearts during cardiac preservation
[2] = cold static preservation as well as transplantation
[3] = following murine heart transplantation
[4] = mice hearts during cardiac preservation

Q: What does the source list for `CCCC(CCC)C(=O)O` [VPA, 2-Propyl-pentanoic acid]?
A: decrease in itaconate during cold storage (human donor hearts; cold preservation, HTK±VPA): limited; succinate production (human donor hearts; cold preservation, HTK±VPA): reduced; fumarate concentration in VPA-treated group (human donor hearts; [1]): 43.5±6.6 pmol/mg tissue; itaconate concentration in VPA-treated group (human donor hearts; [1]): 8.0±1.0 pmol/mg tissue; itaconate (murine hearts; [2]): increased; succinate (murine hearts; [2]): decreased; fumarate (murine hearts; [3]): increased; glutamate (murine hearts; [3]): decreased; malate (murine hearts; [3]): increased; fumarate concentration in VPA-treated group (murine hearts; [4]): 29.0±7.5 pmol/mg tissue; itaconate concentration in VPA-treated group (murine hearts; [4]): 8.8±0.8 pmol/mg tissue; acetyl-CoA, citrate, α-ketoglutarate, fumarate, or malate abundance (murine hearts; murine hearts during cold preservation): no changes

From US20240341301A1 (The Regents of the University of Michigan, priority 2023, published 2024)
